Reference: the NIST ThermoML archive (doi:10.1016/j.jct.2005.10.004)
Several values for one entry are separate records, joined by “and”; a condition that tells them apart may be missing. Equal entries are not always repeated. ± gives the expanded uncertainty stated by the source.

Conditions: Liquid, Buoyancy - hydrostatic balance with magnetic suspension - one sinker

N#N [nitrogen]
Conditions | mass density
249.96 K, 5023.9 kPa | 69.8983 ± 0.016 kg/m3
249.96 K, 5024.2 kPa | 69.9018 ± 0.016 kg/m3
249.96 K, 10070 kPa | 141.612 ± 0.031 kg/m3
249.96 K, 15267 kPa | 211.548 ± 0.045 kg/m3
249.96 K, 15270 kPa | 211.579 ± 0.045 kg/m3 and 211.588 ± 0.045 kg/m3
249.96 K, 19857 kPa | 266.561 ± 0.056 kg/m3
250 K, 4994.5 kPa | 69.4686 ± 0.016 kg/m3
274.97 K, 10066 kPa | 125.016 ± 0.027 kg/m3 and 125.014 ± 0.027 kg/m3
274.97 K, 19871 kPa | 235.319 ± 0.05 kg/m3
274.97 K, 19875 kPa | 235.358 ± 0.05 kg/m3
299.97 K, 10974 kPa | 122.253 ± 0.027 kg/m3
299.97 K, 13855 kPa | 152.56 ± 0.034 kg/m3 and 152.561 ± 0.034 kg/m3
299.97 K, 16780 kPa | 181.982 ± 0.04 kg/m3
299.98 K, 16788 kPa | 182.05 ± 0.04 kg/m3
399.99 K, 10101 kPa | 81.9701 ± 0.018 kg/m3
399.99 K, 14807 kPa | 117.441 ± 0.025 kg/m3
399.99 K, 17250 kPa | 135.043 ± 0.029 kg/m3
400 K, 7435.4 kPa | 61.0376 ± 0.014 kg/m3
400 K, 10100 kPa | 81.9663 ± 0.018 kg/m3
400 K, 19953 kPa | 153.853 ± 0.033 kg/m3
400 K, 19959 kPa | 153.899 ± 0.033 kg/m3
